Values quoted from earlier work in patent US6528086B2, “Methods and apparatus for drug delivery involving phase changing formulations” (Zars, Inc., priority 1999, dated 2003).

Tested on: tissues
Details: in vivo

Compound: CCCCNc1ccc(C(=O)OCCN(C)C)cc1 [Tetracaine]
- duration of anesthetic effect compared with lidocaine: longer lasting anesthetic effect on tissues than lidocaine
